Source: PMC5936891, “A focused library synthesis and cytotoxicity of quinones derived from the natural product bolinaquinone” (Royal Society Open Science, 2018)
“Also recorded” adds a separate entry of the source. Where two headings read alike, the source gives them in different places.

Assays:
[1] = tested on: SMA (spontaneous murine astrocytoma); assay: MTT in vitro growth inhibition assay, SMA; format: cell-based; conditions: Mus musculus; for inhibition at 25 µM: 25 µM of drug, 72 h, read-out: Percentage of Cell Growth Inhibition SMA; for GI50: 72 h drug exposure
[2] = tested on: Du145 (prostate carcinoma); assay: MTT in vitro growth inhibition assay, Du145; format: cell-based; conditions: Homo sapiens; for inhibition at 25 µM: DU-145, 25 µM of drug, 72 h, read-out: Percentage of Cell Growth Inhibition Du145; for GI50: DU-145, 72 h, 72 h drug exposure
MCF-7 (breast carcinoma) = assay: MTT in vitro growth inhibition assay, MCF-7; format: cell-based; conditions: Homo sapiens; for inhibition at 25 µM: MCF7, 25 µM of drug, 72 h, read-out: Percentage of Cell Growth Inhibition MCF-7; for GI50: MCF7, 72 h drug exposure
HT29 (colon carcinoma) = assay: MTT in vitro growth inhibition assay, HT29; format: cell-based; conditions: Homo sapiens; for inhibition at 25 µM: HT-29, 25 µM of drug, 72 h, read-out: Percentage of Cell Growth Inhibition HT29; for GI50: HT-29, 72 h drug exposure
SJ-G2 (glioblastoma) = assay: MTT in vitro growth inhibition assay, SJ-G2; format: cell-based; conditions: for inhibition at 25 µM: 25 µM of drug, 72 h, read-out: Percentage of Cell Growth Inhibition SJ-G2; for GI50: 72 h drug exposure
A431 (skin carcinoma) = assay: MTT in vitro growth inhibition assay, A431; format: cell-based; conditions: Homo sapiens; for inhibition at 25 µM: A-431, 25 µM of drug, 72 h, read-out: Percentage of Cell Growth Inhibition A431; for GI50: A-431, 72 h, 72 h drug exposure
BE2-C (neuroblastoma) = assay: MTT in vitro growth inhibition assay, BE2-C; format: cell-based; conditions: Homo sapiens, BE(2)-C, 72 h; for inhibition at 25 µM: 25 µM of drug, read-out: Percentage of Cell Growth Inhibition BE2-C; for GI50: 72 h drug exposure
H460 (lung carcinoma) = assay: MTT in vitro growth inhibition assay, H460; format: cell-based; conditions: Homo sapiens; for inhibition at 25 µM: NCI-H460, 25 µM of drug, 72 h, read-out: Percentage of Cell Growth Inhibition H460; for GI50: NCI-H460, 72 h drug exposure
[3] = tested on: MCF10A (normal breast cell line); assay: MTT in vitro growth inhibition assay, MCF10A; format: cell-based; conditions: Homo sapiens, MCF-10A; for inhibition at 25 µM: 25 µM of drug, 72 h, read-out: Percentage of Cell Growth Inhibition MCF10A; for GI50: normal breast cell line, 72 h drug exposure
U87 (glioblastoma) = assay: MTT in vitro growth inhibition assay, U87; format: cell-based; conditions: for inhibition at 25 µM: 25 µM of drug, 72 h, read-out: Percentage of Cell Growth Inhibition U87; for GI50: 72 h drug exposure
[4] = tested on: MIA (pancreatic carcinoma); assay: MTT in vitro growth inhibition assay, MIA; format: cell-based; conditions: for inhibition at 25 µM: 25 µM of drug, 72 h, read-out: Percentage of Cell Growth Inhibition MIA; for GI50: 72 h drug exposure
[5] = tested on: A2780 (ovarian carcinoma); assay: MTT in vitro growth inhibition assay, A2780; format: cell-based; conditions: Homo sapiens; for inhibition at 25 µM: 25 µM of drug, 72 h, read-out: Percentage of Cell Growth Inhibition A2780; for GI50: 72 h drug exposure
[6] = tested on: panel of 11 cancer cell lines and one normal cell line; assay: Cytotoxicity across the whole cell line panel (MTT); format: cell-based; conditions: for activity at the initial screening concentration (to proceed to GI50 determination): 25 µM single dose; for potency enhancement over parent analogue: 41 vs parent 29, 43 vs parent 33, on introduction of amine substituents
Source text: With the desired bolinaquinone analogues 12–43 in hand, we examined their cytotoxicity against a panel of 11 tumour cell lines: HT29 (colon carcinoma), U87 and SJ-G2 (glioblastoma), MCF-7 (breast carcinoma), A2780 (ovarian carcinoma), H460 (lung carcinoma), A431 (skin carcinoma), Du145 (prostate carcinoma), BE2-C (neuroblastoma), MIA (pancreatic carcinoma), SMA (spontaneous murine astrocytoma) and a normal breast cell line (MCF10A). The inclusion of the MCF-10A cell line allowed a determination of a crude measure of relative toxicity while noting that the ultimate arbiter of toxicity requires in vivo evaluation. All analogues were initially screened at a 25 µM drug concentration.
Stock solutions were prepared as follows and stored at −20°C: drugs were stored as 40 mM solutions in DMSO. All cell lines were cultured in a humidified atmosphere 5% CO2 at 37°C. The cancer cell lines were maintained in Dulbecco's modified Eagle's medium (DMEM) (Trace Biosciences, Australia) supplemented with 10% fetal bovine serum, 10 mM sodium bicarbonate, penicillin (100 IU ml^−1), streptomycin (100 µg ml^−1) and glutamine (4 mM). The non-cancer MCF10A cell line was cultured in DMEM:F12 (1 : 1) cell culture media, 5% heat-inactivated horse serum, supplemented with penicillin (50 IU ml^−1), streptomycin (50 µg ml^−1), 20 mM Hepes, L-glutamine (2 mM), epidermal growth factor (20 ng ml^−1), hydrocortisone (500 ng ml^−1), cholera toxin (100 ng ml^−1) and insulin (10 ug ml^−1).
Cells in logarithmic growth were transferred to 96-well plates. Cytotoxicity was determined by plating cells in duplicate in 100 µl medium at a density of 2500–4000 cells per well. On day 0 (24 h after plating), when the cells were in logarithmic growth, 100 μl of medium with or without the test agent was added to each well. After 72 h, drug exposure growth inhibitory effects were evaluated using the MTT (3-[4,5-dimethylthiazol-2-yl]-2,5-diphenyl-tetrazolium bromide) assay and the absorbance read at 540 nm. Percentage growth inhibition was determined at a fixed drug concentration of 25 µM. A value of 100% is indicative of complete cell growth inhibition. Those analogues showing appreciable percentage growth inhibition underwent further dose–response analysis allowing for the calculation of a GI50 value. This value is the drug concentration at which cell growth is 50% inhibited based on the difference between the optical density values on day 0 and those at the end of drug exposure.

[7] = average over the cell line panel, read-out: average GI50

Compound	inhibition at 25 µM [1] [%]	inhibition at 25 µM [2] [%]	inhibition at 25 µM (MCF-7 (breast carcinoma)) [%]	inhibition at 25 µM (HT29 (colon carcinoma)) [%]	inhibition at 25 µM (SJ-G2 (glioblastoma)) [%]	inhibition at 25 µM (A431 (skin carcinoma)) [%]	inhibition at 25 µM (BE2-C (neuroblastoma)) [%]	melting point [°C]	inhibition at 25 µM (H460 (lung carcinoma)) [%]	inhibition at 25 µM [3] [%]	inhibition at 25 µM (U87 (glioblastoma)) [%]	inhibition at 25 µM [4] [%]	inhibition at 25 µM [5] [%]	activity at the initial screening concentration (to proceed to GI50 determination) [6]	GI50 [1] [nM]	GI50 [2] [nM]	GI50 (MCF-7 (breast carcinoma)) [nM]	GI50 (HT29 (colon carcinoma)) [nM]	GI50 (A431 (skin carcinoma)) [nM]	GI50 (BE2-C (neuroblastoma)) [nM]	other results
COC1=CC(=O)C(OC)=C(c2cc3ccccc3s2)C1=O [compound 26, 3-(Benzo[b]thiophen-2-yl)-2,5-dimethoxycyclohexa-2,5-diene-1,4-dione]	60 ± 3	66 ± 5	79 ± 4	70 ± 2	42 ± 3	75 ± 1	72 ± 3	205 to 207	49 ± 8	65 ± 4	42 ± 5	59 ± 2	61 ± 1	not sufficiently active; also recorded: did not proceed to GI50 determination	–	–	–	–	–	–	–
COC1=CC(=O)C(OC)=C(c2ccc(-c3ccccc3)cc2)C1=O [compound 27, 3-Biphenyl-4-yl-2,5-dimethoxycyclohexa-2,5-diene-1,4-dione]	61 ± 6	57 ± 7	65 ± 2	76 ± 2	38 ± 3	78 ± 1	98 ± 4	178 to 180	48 ± 3	63 ± 1	54 ± 5	70 ± 1	70 ± 3	–	19000 ± 4200	4100 ± 100	4000 ± 100	4300 ± 100	5700 ± 450	4100 ± 100	GI50 (SJ-G2 (glioblastoma)): 31000 ± 900 nM; GI50 (H460 (lung carcinoma)): 19000 ± 2500 nM; GI50 [3]: 3900 ± 100 nM; GI50 (U87 (glioblastoma)): 19000 ± 2300 nM; GI50 [4]: 4500 ± 130 nM; GI50 [5]: 4300 ± 100 nM; GI50 [6, 7]: 10200 nM; GI50 ([6]; span over the cell line panel, read-out: GI50 values across the cell lines examined (range)): 3900 to 19000 nM
COC1=CC(=O)C(OC)=C(c2cccc(-c3ccccc3)c2)C1=O [compound 28, 3-Biphenyl-3-yl-2,5-dimethoxycyclohexa-2,5-diene-1,4-dione]	36 ± 8	12 ± 1	27 ± 1	16 ± 2	18 ± 3	< 10	59 ± 23	172 to 174	12 ± 5	< 10	12 ± 9	< 10	52 ± 17	not sufficiently active; also recorded: did not proceed to GI50 determination	–	–	–	–	–	–	cytotoxicity spectrum across the panel [6]: broad-spectrum active
CCCNC1=CC(=O)C(NCCC)=C(c2ccccc2-c2ccccc2)C1=O [compound 41, 3-(Biaryl-2-yl)-2,5-bis-(propylamino)cyclohexa-2,5-diene-1,4-dione]	68 ± 6	71 ± 2	70 ± 3	75 ± 2	60 ± 2	90 ± 1	74 ± 7	177 to 179	62 ± 1	83 ± 2	82 ± 3	76 ± 1	68 ± 2	sufficient activity	3300 ± 1000	1900 ± 100	2000 ± 100	1900	2000 ± 100	1900	GI50 (SJ-G2 (glioblastoma)): 3500 ± 1000 nM; GI50 (H460 (lung carcinoma)): 2300 ± 100 nM; GI50 [3]: 1700 ± 200 nM; GI50 (U87 (glioblastoma)): 5100 ± 1000 nM; GI50 [4]: 1900 nM; GI50 [5]: 2000 ± 100 nM; potency enhancement over parent analogue [6]: greater than or equal to 20 fold; GI50 [6, 7]: 2500 nM
CCCNC1=C(c2ccc3ccccc3c2)C(=O)C(NCCC)=C(c2cccc3ccccc23)C1=O [compound 43]	80 ± 7	80 ± 2	77 ± 2	81 ± 2	55 ± 1	92 ± 1	44 ± 6	210 to 213	76 ± 1	89 ± 2	91 ± 1	90 ± 2	94 ± 1	sufficient activity	3900 ± 3500	160 ± 100	170 ± 100	80	110	80	GI50 (H460 (lung carcinoma)): 110 nM; GI50 [3]: 70 nM; GI50 (U87 (glioblastoma)): 2100 ± 1000 nM; GI50 [4]: 100 nM; GI50 [5]: 140 ± 100 nM; potency enhancement over parent analogue [6]: greater than or equal to 20 fold; GI50 [6, 7]: 690 nM
